One series concerns the target T1, human CCL5 (Homo sapiens, UniProt P13501).
T1 sequence (P13501 24-91): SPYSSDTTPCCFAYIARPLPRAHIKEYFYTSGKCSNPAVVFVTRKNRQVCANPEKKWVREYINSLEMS
The series is described as follows: Fluorescence anisotropy titration of 5(6)-Fam-labeled peptides by CCL5. Format: binding. Particulars: 100 nM 5(6)-Fam-labeled peptide, HEPES pH 7.4, 37 °C; for effect of CCL5 addition on fluorescence anisotropy / affinity in words: CCL5 up to 500 nM. From the text:
To assess this hypothesis, two peptides taken from the Evasin-4 sequence were synthesized by Boc-based solid-phase peptide synthesis (Figs. S8 and S9). The first peptide, Ev4 Glu^14–Ala^23, comprises the Glu^14–Ala^23 residues of Evasin-4, whereas the second one, Ev4 Glu^14–Asn^31, includes the longer region Glu^14–Asn^31 (Fig. 4C). Cys^27 in the Ev4 Glu^14–Asn^31 was mutated to alanine to prevent oxidation and formation of intermolecular disulfide bonds. Affinity of obtained peptides to CCL5 was studied by fluorescence anisotropy using 100 nM of 5(6)-Fam–labeled peptides and human CCL5.
Fluorescence polarization assays were carried out using FluoroMax 4 fluorimeter (Horiba) equipped with FM4-2000 polarizers in 3-ml cuvettes. 100 nM solution of 5(6)-Fam–labeled peptides in HEPES buffer pH 7.4 were titrated by a 30 μM stock solution of CCL5 at 37 °C. Fluorescent signal was measured using 495 and 520 nm as excitation and emission wavelengths. The final titration curve is a result of three or four independent measurements.

For series [1], the system named is CCL5-induced THP-1 cell migration. The series is described as follows: THP-1 monocytic cell migration assay toward CCL5. Particulars: CCL5 0.5 µg/ml. Format: cell-based, human. How it is done: Human acute monocytic leukemia cell line (THP-1) monocytic cells were purchased from Leibniz-Institut DSMZ (ACC 16). The cells were cultured in RPMI 1640 GlutaMAX medium supplemented with 20 % fetal calf serum and 1 % penicillin/streptomycin (all Gibco ThermoFisher). The cells were cultured in a humidified atmosphere (5 % CO2, 95 % air, 37 °C) and routinely passed by splitting the cells (1:10) to fresh medium. The migration of monocytic cells toward chemoattractants was assessed in a 12-well chemotaxis chamber equipped with a 5-μm polycarbonate membrane (both Neuroprobe, Gaithersburg, MD, USA). Chemoattractants CCL5 (0.5 µg/ml) or CXCL4 (0.5 µg/ml) were preincubated with met–Evasin-4 (1 µg/ml) for 2 h at 37 °C subsequently added to the bottom well of the chemotaxis chamber. THP-1 monocytic cells (1 × 10^6/ml), suspended in RPMI 1640 GlutaMAX medium supplemented with 1 % fetal calf serum, were added in the upper wells and incubated for 90 min at 37 °C in a humidified atmosphere (5 % CO2, 95 % air). The nonmigrated cells were carefully removed, and the membrane was stained with Diff-Quick stain (Eberhard Lehmann GmbH, Berlin, Germany). Migrated cells were visualized by light microscopy, counted manually in five fields, and expressed as cells/mm^2.

The subject of a further series is E66S CCL5. Briefly: NMR titration of 15N E66S CCL5 by Ev4 Glu14-Asn31. Format: binding. The settings on record: 25 mM acetate. How it is done:
In the case of E66S CCL5/Ev4 Glu^14–Asn^31 complex, 25 μM of ^15N E66S CCL5 in 25 mM acetate buffer, pH 4.5, was titrated by increasing concentrations of Ev4 Glu^14–Asn^31. For each concentration ^15N-^1H HSQC was recorded. Backbone resonance assignments were derived by following the shift of peak positions.

Series [2] in a line: Solubility/precipitation observed in NMR and crystallization sample preparation.
Description: For NMR sample preparation, lyophilized proteins were dissolved in 25 mM phosphate buffer (pH 6.8–7.1) or 25 mM sodium acetate-d^3 buffer (pH 4.5) containing 0.1 mM EDTA, 0.2 mM sodium azide, 5% (v/v) D2O for deuterium lock, at final concentration of 50 μM for m–t-Evasin-4 and 82, 20, and 1 μM for E66S CCL5. The samples were buffer exchanged four or five times by ultracentrifugation using prewashed Amicon Ultra-3000 3-kDa (Millipore, USA) ultracentrifugation filters. Final NMR samples were prepared in 3- or 5-mm NMR tubes, containing traces of DSS for chemical shift calibration. All NMR spectra were recorded using a Bruker Avance III HD 700 MHz spectrometer, equipped with a cryogenically cooled TCI probe at 37 °C. To make the complex, equimolar amounts of unlabeled met–Evasin-4 or E66S CCL5 were titrated to their [^15N,^13C]-enriched complement samples. For met–Evasin-4 and the two complexes, the solution pH of the NMR sample was carefully adjusted to pH 7.1 to ensure stable, nonprecipitating solutions.
A short description of series [3]: NMR analysis of E66S CCL5 monomer/dimer equilibria. Format: physicochemical. Particulars: pH 4.5, 37 °C. How it is done: To study the structural determinants of E66S CCL5 involved in Evasin-4 binding, NMR spectra were recorded for the [^15N,^13C]E66S CCL5–Evasin-4 complex. Initial ^15N-^1H HSQC spectra of [^15N,^13C]E66S CCL5 were recorded at pH 4.5 and 37 °C at concentrations of 1 and 20 μM. […] This observation goes in line with the obtained crystal structure because the E66S CCL5 dimer interface is formed by interactions of the N terminus with the 30s loop and β3-strand.

The conditions of series [4]: physiological pH; cited from earlier work. How it is done:
(§1) CCL5 can oligomerize, forming dimers and oligomers of a higher order ([16]), which would complicate analysis of Evasin-4 binding. […] To address this question, surface plasmon resonance (SPR) biosensor analysis was performed with biotinylated Eva ...

The next series relates to Evasin-4. The settings on record: cited from earlier work. How it is done: as §1
Another series has as its system CCL3. The settings on record: cited from earlier work. An excerpt: Disruption of the chemokine signaling system is one of the crucial parts of ticks' strategy to evade immune responses. To neutralize chemokines, ticks secrete small cysteine-rich chemokine-binding proteins in their saliva with no homologues in mammals, termed Evasins ([6]). Evasins can be divided into two structurally unrelated C6 or C8 subfamilies embodying six and eight cysteines, respectively ([6]). […] In fact, the N terminus of C8-Evasins seems to play a crucial role in chemokine binding. For instance, replacement of the N terminus of Evasin-1 by that of P672, another C8-Evasin with different chemokine selectivity, produced a chim ...

The test system of a further series is CCL18. Particulars: cited from earlier work. From the text: (§2) Disruption of the chemokine signaling system is one of the crucial parts of ticks' strategy to evade immune responses. To neutralize chemokines, ticks secrete small cysteine-rich chemokine-binding proteins in their saliva with no homologues in mammals, termed Evasins ([6]). Evasins can be divided into two structurally unrelated C6 or C8 subfamilies embodying six and eight cysteines, respectively ([6]). […] Although several hundred of putative C6- and C8-Evasins have been identified in tic ...

The test system of a further series is CCL4. Particulars: cited from earlier work.
Source text: as §2

Entries after “also recorded” stand apart in the source; their conditions may differ. Like-named read-outs stand apart in the source and are kept apart here.

“H-EEEDDYTAYA-NH2 [Ev4 Glu^14–Ala^23, peptide comprising the Glu14–Ala23 residues of Evasin-4]”: the “effect of CCL5 addition on fluorescence anisotropy / affinity in words” value on human CCL5 is given as “no effect even at concentration of 500 nM”. Further, at human CCL5 (fluorescence anisotropy), the “affinity to CCL5” value is “no affinity to CCL5”.
With “H-EEEDDYTAYAPLTAYFTN-NH2 [Ev4 Glu^14–Asn^31, H2N-EEEDDYTAYAPLTAYFTN-CONH2]”, at human CCL5, the “effect of CCL5 addition on fluorescence anisotropy / affinity in words” value is “dose-dependent increase of fluorescence anisotropy”. The “affinity to CCL5” value on human CCL5 (fluorescence anisotropy) is recorded as “nanomolar affinity to CCL5; also recorded: binds CCL5 with nanomolar affinity”. Also, at human CCL5 (fluorescence anisotropy, titrated by 30 μM stock of CCL5, ex 495/em 520 nm, three or four independent measurements, read-out: apparent KD), the Kd amounted to 69 ± 12 nM. The “required inhibitory concentrations compared with full-length Evasin-4” value in series [1] (CCL5-induced THP-1 migration, compared with full-length protein) is “the required concentrations were higher compared with the full-length protein”. In addition, in [1] (full inhibition only at this concentration, 1 × 10^6 cells/ml, 90 min, 37 °C), the “concentration at which full inhibition of CCL5-induced THP-1 migration was reached” value was 10 µM. In addition, in series [1] (increasing concentrations of Ev4 Glu14-Asn31, 1 × 10^6 cells/ml, 90 min, 37 °C), the “inhibition of CCL5-induced THP-1 migration” value is “dose-dependent inhibition of CCL5-induced THP-1 cell migration; also recorded: effectively inhibits CCL5-induced monocyte migration; also recorded: blocks CCL5-induced monocyte migration”. Besides, the “effect of peptide titration on E66S CCL5 signals” value with E66S CCL5 (25 μM [15N]E66S CCL5, increasing concentrations of peptide, pH 4.5) was “binds the CCL5 monomer; also recorded: gradual shift of signals of monomeric E66S CCL5 and decrease of signal intensity for the dimeric form; also recorded: only CCL5 monomer signals are affected upon binding”. In addition, the “most perturbed residues of E66S CCL5 by peptide binding” value in the series on E66S CCL5 (25 μM [15N]E66S CCL5 monomer form, before and after 500 μM Ev4 Glu14-Asn31, pH 4.5, 37 °C) was “N-loop (Phe^12–Arg^21 and His^23) and in the β3-strand (Gln^48 and Cys^50)”. Moreover, in series [2] (low pH values, negatively charged residues), the “solubility of peptide” value was “poorly soluble at low pH values”. In addition, the “solubility of complex with E66S CCL5” value in series [2] (peptide/E66S CCL5 complex compared with E66S CCL5-Evasin-4 complex) is on record as “more soluble compared with the E66S CCL5–Evasin-4 complex”.

B1: E66S CCL5: CCL5 mutant that mainly forms dimers at physiological pH (protein, UniProt P13501 24-91, looked up, variant E66S)
C-C motif chemokine 5: SPYSSDTTPCCFAYIARPLPRAHIKEYFYTSGKCSNPAVVFVTRKNRQVCANPEKKWVREYINSLSMS
Turning to B1, the “oligomeric form” value in series [3] (1 μM E66S CCL5, 15N-1H HSQC) is “monomeric form”; in series [3] (20 μM E66S CCL5, 15N-1H HSQC, two sets of signals), “monomeric and dimeric form”; in series [4], “mainly forms dimers”.

B2: CCL5: chemokine CC-motif ligand 5, also known as RANTES (protein, UniProt P13501 24-91, looked up)
C-C motif chemokine 5: SPYSSDTTPCCFAYIARPLPRAHIKEYFYTSGKCSNPAVVFVTRKNRQVCANPEKKWVREYINSLEMS
Take B2: the “induction of THP-1 migration” value in series [1] (compared with control in the absence of chemoattractants, 90 min, 37 °C) is on record as “induced significant migration of THP-1 cells”.

B3: E66A CCL5: CCL5 mutant with deficiency in oligomerization (ref 25) (protein, UniProt P13501 24-91, looked up, variant E66A)
C-C motif chemokine 5: SPYSSDTTPCCFAYIARPLPRAHIKEYFYTSGKCSNPAVVFVTRKNRQVCANPEKKWVREYINSLAMS
Turning to B3, the “oligomerization and Evasin-4 inhibition potency” value in the series with Evasin-4 is given as “deficiency in oligomerization without disturbing Evasin-4 inhibition potency”.

B4: Evasin-1: 94–amino acid protein from the C8 subfamily, from Rhipicephalus sanguineus (protein, UniProt P0C8E7 21-114, looked up)
Evasin-1: EDDEDYGDLGGCPFLVAENKTGYPTIVACKQDCNGTTETAPNGTRCFSIGDEGLRRMTANLPYDCPLGQCSNGDCIPKETYEVCYRRNWRDKKN
On to B4, for which the affinity in words result with CCL3, in the series with CCL18 and with CCL4 was “high-affinity binder” in each case.

The values are drawn from paper PMC7573271, “Structural characterization of anti-CCL5 activity of the tick salivary protein evasin-4” (The Journal of Biological Chemistry, 2020).
